Reference: patent publication US20090134028A1, “Method of Estimating Effect of Test Chemical on Living Organisms” (Chemicals Evaluation and Research Institute, priority 2005, published 2009)
Read-outs that look alike come from different tables or passages of the source.

Key:
[1] = cited from earlier work
[2] = Prediction of liver cell hypertrophy using SVM from post-translational modification data; parameters: species or system rat
[3] = test system: liver cell
[4] = SVM prediction of liver cell hypertrophy, training set, top-ranked 20 sets of post-translational modification data
[5] = known carcinogenicity of chemical, Tables 1 to 3
[6] = known carcinogenicity of chemical, Tables 8 to 11

Row | Compound | Carcinogenicity ([1]; in vivo) | Finding of hepatocyte hypertrpy ([3]; rat, in vivo) | pathology of liver cell hypertrophy in the liver ([3]; rat, in vivo) | further results
1 | CCSCCC(N)C(=O)O (racemic) [D,L-ethionin] | + |  |  | 
2 | CC(C)[C@@H]1CC[C@@H](C)C[C@H]1O (racemic) [DL-menthol] | − | + | pathology of liver cell hypertrophy was seen | Prediction result [2]: +1 CORRECT
3 | Clc1ccc(Cl)cc1 [1,4-Dichlorobenzene] | + | + | pathology of liver cell hypertrophy was seen | Prediction result [2]: +1 CORRECT
4 | C1COCCO1 [1,4-Dioxane] |  | − | no pathology of liver cell hypertrophy was seen | Prediction result [2]: −1 CORRECT
5 | CC(O)CCl (centres unmarked) [1-Chloro-2-propanol] | − |  |  | 
6 | O=[N+]([O-])c1cccc2ccccc12 [1-Nitronaphthalene] | − |  |  | 
7 | Cc1ccc(N)cc1N [2,4-Diaminotoluene] | + | − | no pathology of liver cell hypertrophy was seen | Prediction result [2]: −1 CORRECT
8 | Cc1cc(N)ccc1N.O=S(=O)(O)O [2,5-Toluenediamine sulfate] | − |  |  | 
9 | Cc1c(N)cccc1N [2,6-Diaminotoluene] |  | − | no pathology of liver cell hypertrophy was seen | Prediction result [2, 4]: −1 CORRECT
10 | Cl.ClCc1ccccn1 [2-(Chloromethyl)pyridine hydrochloride] |  | − | no pathology of liver cell hypertrophy was seen | Prediction result [2]: −1 CORRECT; Carcinogenicity [1, 5]: −; Carcinogenicity [1, 6]: −
11 | Cn1c(N)nc2ncc(-c3ccccc3)cc21 [2-Amino-1-methyl-6-phenylimidazo[4,5-b]-pyridine] | + |  |  | 
12 | Cc1cnc2ccc3c(nc(N)n3C)c2n1 [2-Amino-3,8-dimethylimidazo[4,5-f]-quinoxaline] | + |  |  | 
13 | Nc1ccc(N)c(Cl)c1.O=S(=O)(O)O [2-Chloro-p-phenylenediamine sulfate] | − |  |  | 
14 | CC(C)[N+](=O)[O-] [2-Nitropropane] |  | − | no pathology of liver cell hypertrophy was seen | Prediction result [2]: −1 CORRECT
15 | Cc1ccc(N)cc1Cl [3-Chloro-p-toluidine] | − |  |  | 
16 | Cc1ccc2cc3c(ccc4ccccc43)c3c2c1CC3 [3-Methylcholantrene] | + |  |  | 
17 | CC(=O)Nc1ccc(C(=O)CCl)cc1 [4-(Chloroacetyl)acetanilide] | − |  |  | 
18 | CN(C)c1ccc(N=Nc2ccccc2)cc1 [4-Dimethylaminoaxobenzene] | + |  |  | 
19 | Nc1ccc([N+](=O)[O-])cc1N [4-Nitro-o-phenylenediamine] | − | − | no pathology of liver cell hypertrophy was seen | Prediction result [2]: −1 CORRECT
20 | Nc1cc([N+](=O)[O-])ccc1C(=O)O [4-Nitroanthranylic acid] | − |  |  | 

Row | Compound | Carcinogenicity ([1]; in vivo) | Finding of hepatocyte hypertrpy ([3]; rat, in vivo) | pathology of liver cell hypertrophy in the liver ([3]; rat, in vivo) | further results
21 | Cc1c2ccccc2c(C)c2c1ccc1ccccc12 [7,12-Dimethylbenzanthracene] | + |  |  | 
22 | Oc1cccc2cccnc12 [8-Hydrxyquinoline] | − | − | no pathology of liver cell hypertrophy was seen | Prediction result [2]: −1 CORRECT
23 | CC(N)=O [Acetamide] | + |  |  | 
24 | ClC1=C(Cl)C2(Cl)C3C4C=CC(C4)C3C1(Cl)C2(Cl)Cl (centres unmarked) [Aldrin] | + | − | no pathology of liver cell hypertrophy was seen | Prediction result [2]: −1 CORRECT
25 | CC(=O)Oc1ccccc1C(=O)O [Aspirin] |  |  |  | Carcinogenicity [1, 5]: −; Carcinogenicity [1, 6]: −
26 | c1ccc2cc3c(ccc4ccccc43)cc2c1 [Benz(a)anthracene] | + |  |  | 
27 | O=C(c1ccccc1)C(O)c1ccccc1 (centres unmarked) [Benzoin] | − |  |  | 
28 | COc1ccc(O)c(C(C)(C)C)c1 [Butylated hydroxyanisole] | + | − | no pathology of liver cell hypertrophy was seen | Prediction result [2]: −1 CORRECT
29 | O=C1CCCCCN1 [Caprolactam] |  |  |  | Carcinogenicity [1, 5]: −; Carcinogenicity [1, 6]: −
30 | ClC(Cl)(Cl)Cl [Carbon tetrachloride] | + | − | no pathology of liver cell hypertrophy was seen | Prediction result [2]: −1 CORRECT
31 | O=C(O)C1C(C(=O)O)C2(Cl)C(Cl)=C(Cl)C1(Cl)C2(Cl)Cl (centres unmarked) [Chlorendic acid] | + |  |  | 
32 | ClC(Cl)Cl [Chloroform] | + |  |  | 
33 | CCOC(=O)C(C)(C)Oc1ccc(Cl)cc1 [Clofibrate] |  | + | pathology of liver cell hypertrophy was seen | Carcinogenicity [1, 5]: +; Carcinogenicity [1, 6]: +
34 | OC[C@@H](O)[C@@H](O)[C@H](O)[C@H](O)CO [D-mannitol] |  | − | no pathology of liver cell hypertrophy was seen | Prediction result [2, 4]: −1 CORRECT; Carcinogenicity [1, 5]: −; Carcinogenicity [1, 6]: −
35 | CCCCC(CC)COC(=O)CCCCC(=O)OCC(CC)CCCC (centres unmarked) [Di(2-ethylhexyl)adipate] |  | − | no pathology of liver cell hypertrophy was seen | Prediction result [2]: 1
36 | CCCCC(CC)COC(=O)c1ccccc1C(=O)OCC(CC)CCCC (centres unmarked) [Di(2-ethylhexyl)phthalate] | + | + | pathology of liver cell hypertrophy was seen | Prediction result [2, 4]: −1 (−1 and 1 indicates the incorrectly predicted compounds)
37 | CCN(CC)N=O [Diethylnitrosamine] | + | − | no pathology of liver cell hypertrophy was seen | Prediction result [2]: −1 CORRECT
38 | CC/C(=C(/CC)c1ccc(O)cc1)c1ccc(O)cc1 [Diethylstilbestrol] |  |  |  | Carcinogenicity [1, 5]: +; Carcinogenicity [1, 6]: +
39 | C#C[C@]1(O)CC[C@H]2[C@@H]3CCc4cc(O)ccc4[C@H]3CC[C@@]21C [Ethinylestradiol] |  | − | no pathology of liver cell hypertrophy was seen | Carcinogenicity [1, 5]: +; Carcinogenicity [1, 6]: +
40 | c1ccoc1 [Furan] | + | + | pathology of liver cell hypertrophy was seen | Prediction result [2]: −1

Row | Compound | Carcinogenicity ([1]; in vivo) | Finding of hepatocyte hypertrpy ([3]; rat, in vivo) | pathology of liver cell hypertrophy in the liver ([3]; rat, in vivo) | further results
41 | O=CCCCC=O [Glutaraldehyde] |  |  |  | Carcinogenicity [1, 5]: −; Carcinogenicity [1, 6]: −
42 | Clc1c(Cl)c(Cl)c(Cl)c(Cl)c1Cl [Hexachlorobenzene] |  | + |  | 
43 | IC(I)I [Iodoform] | − | + |  | Prediction result [2, 4]: +1 CORRECT
44 | O=C1O[C@H]([C@@H](O)CO)C(O)=C1O [L-ascorbic acid] |  | − |  | Prediction result [2, 4]: −1 CORRECT
45 | COC(N)=O [Methyl carbamate] |  |  |  | Prediction result [2, 4]: −1 CORRECT; pathology of liver cell hypertrophy in the liver ([3]; after 28 days repeated administration): no pathology of liver cell hypertrophy was seen; Finding of hepatocyte hypertrpy ([3]; rat liver after 28 days repeated administration): −
46 | CCN(N=O)C(N)=O [N-ethy-N-nitrosourea] | + |  |  | 
47 | CN(C)N=O [N-nitrsodimethylamine] | + |  |  | 
48 | ClC(Cl)C(Cl)(Cl)Cl [Pentachloroethane] | + |  |  | 
49 | CCC1(c2ccccc2)C(=O)NC(=O)NC1=O [Phenobarbital] |  | + | pathology of liver cell hypertrophy was seen | 
50 | O=C1NC(=O)C(c2ccccc2)(c2ccccc2)N1 [Phenytoin sodium] |  |  |  | Carcinogenicity [1, 5]: +; Carcinogenicity [1, 6]: +
51 | NC(=O)c1ccccc1C(N)=O [Phthalamide] |  |  |  | Carcinogenicity [1, 5]: −; Carcinogenicity [1, 6]: −
52 | c1ccc2ncccc2c1 [Quinoline] | + | − | no pathology of liver cell hypertrophy was seen | Prediction result [2, 4]: −1 CORRECT
53 | C=CCc1ccc2c(c1)OCO2 [Safrole] | + | + | pathology of liver cell hypertrophy was seen | Prediction result [2]: +1 CORRECT
54 | ClC(Cl)=C(Cl)Cl [Tetrachloroethylene] | + |  |  | 
55 | CC(=N)S [Thioacetamide] | + |  |  | 
56 | O=C(O)C(Cl)(Cl)Cl [Trichloroacetic acid] | + |  |  | 
57 | ClC=C(Cl)Cl [Trichloroethylene] | + | − | no pathology of liver cell hypertrophy was seen | Prediction result [2]: −1 CORRECT
58 | CCOC(N)=O [Urethane] |  |  |  | Carcinogenicity [1, 5]: +; Carcinogenicity [1, 6]: +
59 | Cl.Cl.Nc1ccc(N)cc1 [p-Phenylenediamine dihydrochloride] | − |  |  | 
60 | Cl[C@H]1[C@H](Cl)[C@H](Cl)[C@@H](Cl)[C@H](Cl)[C@H]1Cl [α-Hexachlorocyclohexane] | + | + | pathology of liver cell hypertrophy was seen | Prediction result [2]: +1 CORRECT
